Test results taken from ChEMBL document CHEMBL1149805, “Antibacterial activity of a novel series of 3-bromo-4-(1H-3-indolyl)-2,5-dihydro-1H-2,5-pyrroledione derivatives--an extended structure-activity relationship study” (Eur J Med Chem, 2008).
≈ marks a conversion by molar mass, not a printed value. Calls of active or inactive are those of the source. No rule for the calls is given here.

Columns and labels:
[1] = Partition coefficient, log P of the compound; assay type: physicochemical; conditions: octanol/water
[2] = system: Mycolicibacterium smegmatis; experiment: Antibacterial activity against Mycobacterium smegmatis SG987 after 24 hrs by broth microdilution method; assay type: functional; conditions: for MIC: Mycolicibacterium smegmatis, SG987, 24 h
[3] = system: Escherichia coli; experiment: Antibacterial activity against Escherichia coli after 24 hrs by broth microdilution method; assay type: functional, organism-based
[4] = system: Candida albicans; experiment: Antibacterial activity against Candida albicans after 24 hrs by broth microdilution method; assay type: functional, organism-based
[5] = system: Staphylococcus aureus; experiment: Antibacterial activity against Staphylococcus aureus 134/93 after 24 hrs by broth microdilution method; assay type: functional; conditions: for MIC: Staphylococcus aureus, 134/93, 24 h

SMILES	logP [1]	-logMIC [2]	MIC [2] [µM]	Activity [3]	Activity [4]	-logMIC [5]	MIC [5] [µM]
CCc1cccc2c(C3=C(Br)C(=O)NC3=O)c(-c3ccccc3)[nH]c12	3.42	4.5	31.7 (≈ 12.5 µg/mL)	inactive	inactive	5.7	2.51 (≈ 0.992 µg/mL)
CCOc1ccc2[nH]c(-c3cccc(OC)c3)c(C3=C(Br)C(=O)NC3=O)c2c1	2.97	5.2	6.31 (≈ 2.78 µg/mL)	inactive	inactive	5.5	3.5 (≈ 1.54 µg/mL)
Cc1cccc2c(C3=C(Br)C(=O)NC3=O)c(-c3ccccc3)[nH]c12	3.19	4.5	32.6 (≈ 12.4 µg/mL)	inactive	inactive	5.4	3.98 (≈ 1.52 µg/mL)
CCCCOc1ccc2[nH]c(-c3ccccc3)c(C3=C(Br)C(=O)NC3=O)c2c1	3.42	4.5	28.4 (≈ 12.5 µg/mL)	inactive	inactive	6.9	0.11 (≈ 0.0483 µg/mL)
CCCCOc1ccc(-c2[nH]c3ccccc3c2C2=C(Br)C(=O)NC2=O)cc1	3.87	4.8	15.8 (≈ 6.96 µg/mL)	inactive	inactive	6.3	0.45 (≈ 0.198 µg/mL)
CCCOc1ccc2[nH]c(-c3ccccc3)c(C3=C(Br)C(=O)NC3=O)c2c1	3.16	4.2	58.8 (≈ 25 µg/mL)	inactive	inactive	6	0.95 (≈ 0.404 µg/mL)
CCCCCCc1ccc2[nH]c(-c3ccccc3)c(C3=C(Br)C(=O)NC3=O)c2c1	4.39	–	–	inactive	inactive	–	–
CCCCCc1ccc2[nH]c(-c3ccccc3)c(C3=C(Br)C(=O)NC3=O)c2c1	4.07	5.5	3.6 (≈ 1.57 µg/mL)	inactive	inactive	6	0.91 (≈ 0.398 µg/mL)
O=C1NC(=O)C(c2c(-c3ccc(OCc4ccccc4)cc3)[nH]c3ccccc23)=C1Br	3.3	4.6	25.1 (≈ 11.9 µg/mL)	inactive	inactive	6.7	0.21 (≈ 0.0994 µg/mL)
O=C1NC(=O)C(c2c(-c3ccc(OCc4cccc5ccccc45)cc3)[nH]c3ccccc23)=C1Br	3.76	5.5	3.16 (≈ 1.65 µg/mL)	inactive	inactive	5.8	1.5 (≈ 0.785 µg/mL)
Cc1ccc2[nH]c(-c3ccccc3)c(C3=C(Br)C(=O)NC3=O)c2c1	2.88	5.4	4.1 (≈ 1.56 µg/mL)	inactive	inactive	6.9	0.13 (≈ 0.0496 µg/mL)
CCc1cccc2c(C3=C(Br)C(=O)NC3=O)c(-c3ccc(OC)cc3)[nH]c12	3.35	4.5	29.4 (≈ 12.5 µg/mL)	inactive	inactive	6.3	0.5 (≈ 0.213 µg/mL)
CCCOc1ccc2[nH]c(-c3ccc(OC)cc3)c(C3=C(Br)C(=O)NC3=O)c2c1	3.12	–	–	inactive	inactive	6.4	0.44 (≈ 0.2 µg/mL)
CCc1ccc2[nH]c(-c3cccc(OC)c3)c(C3=C(Br)C(=O)NC3=O)c2c1	3.35	5.4	3.98 (≈ 1.69 µg/mL)	inactive	inactive	6.3	0.5 (≈ 0.213 µg/mL)
CCCCCOc1ccc2[nH]c(-c3ccccc3)c(C3=C(Br)C(=O)NC3=O)c2c1	3.75	4.6	27.5 (≈ 12.5 µg/mL)	inactive	inactive	4.6	27 (≈ 12.2 µg/mL)
O=C(CCc1[nH]c2ccccc2c1C1=C(Br)C(=O)NC1=O)Nc1ccccc1	2.42	4.7	21 (≈ 9.2 µg/mL)	inactive	inactive	6.7	0.18 (≈ 0.0789 µg/mL)

SMILES	logP [1]	-logMIC [2]	MIC [2] [µM]	Activity [3]	Activity [4]	-logMIC [5]	MIC [5] [µM]
CCCCCCc1cccc2c(C3=C(Br)C(=O)NC3=O)c(-c3ccc(OC)cc3)[nH]c12	4.27	–	–	inactive	inactive	6.4	0.4 (≈ 0.193 µg/mL)
COc1ccc(-c2[nH]c3c(C)cccc3c2C2=C(Br)C(=O)NC2=O)cc1	3.12	4.5	30.4 (≈ 12.5 µg/mL)	inactive	inactive	5.7	2 (≈ 0.823 µg/mL)
CCCCCCOc1ccc2[nH]c(-c3ccccc3)c(C3=C(Br)C(=O)NC3=O)c2c1	4.08	–	–	inactive	inactive	–	–
CCCCCCCCCCOc1ccc(-c2[nH]c3ccccc3c2C2=C(Br)C(=O)NC2=O)cc1	5.94	4	100 (≈ 52.3 µg/mL)	inactive	inactive	–	–
CCCCCOc1ccc2[nH]c(-c3ccc(OC)cc3)c(C3=C(Br)C(=O)NC3=O)c2c1	3.77	–	–	inactive	inactive	–	–
O=C(O)c1cn(C2CC2)c2cc(N3CCNCC3)c(F)cc2c1=O [CIPROFLOXACIN]	–	5.9	1.2 (≈ 0.398 µg/mL)	–	–	4.4	38.1 (≈ 12.6 µg/mL)
CCCCc1cccc2c(C3=C(Br)C(=O)NC3=O)c(-c3ccc(OC)cc3)[nH]c12	3.81	–	–	inactive	inactive	6.6	0.25 (≈ 0.113 µg/mL)
COc1ccc(-c2[nH]c3ccccc3c2C2=C(Br)C(=O)NC2=O)cc1	2.42	4.8	15.8 (≈ 6.3 µg/mL)	inactive	inactive	6.5	0.32 (≈ 0.127 µg/mL)
CCc1ccc2[nH]c(-c3ccc(OC)cc3)c(C3=C(Br)C(=O)NC3=O)c2c1	3.23	5.4	3.67 (≈ 1.56 µg/mL)	inactive	inactive	6.6	0.23 (≈ 0.0978 µg/mL)
CCCCCOc1ccc(-c2[nH]c3ccccc3c2C2=C(Br)C(=O)NC2=O)cc1	4.2	3.9	126 (≈ 57.1 µg/mL)	inactive	inactive	6.1	0.88 (≈ 0.399 µg/mL)
CCCCCc1cccc2c(C3=C(Br)C(=O)NC3=O)c(-c3ccccc3)[nH]c12	4.11	4.9	14.3 (≈ 6.25 µg/mL)	inactive	inactive	6.3	0.5 (≈ 0.219 µg/mL)
COc1cccc(-c2[nH]c3ccc(OC)cc3c2C2=C(Br)C(=O)NC2=O)c1	2.79	4.8	15.8 (≈ 6.77 µg/mL)	inactive	inactive	5.7	1.9 (≈ 0.812 µg/mL)
CCCCCCc1ccc2[nH]c(-c3ccc(OC)cc3)c(C3=C(Br)C(=O)NC3=O)c2c1	–	–	–	inactive	inactive	–	–
CCCCCCOc1ccc2[nH]c(-c3ccc(OC)cc3)c(C3=C(Br)C(=O)NC3=O)c2c1	4.1	–	–	inactive	inactive	–	–
CCCCOc1ccc2[nH]c(-c3ccc(OC)cc3)c(C3=C(Br)C(=O)NC3=O)c2c1	3.43	–	–	inactive	inactive	7	0.1 (≈ 0.0469 µg/mL)
